In this assay the test system is Human myeloid monocytic leukemia cell line (MV-4-11). The assay can be described thus: Inhibition of MV-4-11 cell proliferation (CellTiter luminescent viability). The assay is classed as cell-based. The note with it: Homo sapiens, MV4-11; for inhibition at 0.01 µM: read-out: Inhibition Rate at 10 nM (%); for inhibition at 0.5 µM: read-out: Inhibition Rate at 500 nM (%). How it is done: The tumor cells used herein were cultured in a cell culture medium listed in table 3 at 37 °C in an incubator with 5% CO2. Prior to experimentation, all cell lines used were correctly identified by STR profiling, and tested negative for mycoplasma contamination using a mycoplasma detection kit through routine screenings.
The IC50 values of the compounds of the present disclosure (including the compounds in Table 1, Table 2, and Examples 1-468) were determined using the CellTiter-Meiluncell Luminescent Cell Viability Assay Kit from Dalian Meilun Biotech Co., Ltd. The detailed procedure is as follows: Tumor cells were seeded in 96-well cell culture plates at the densities specified in Table 4. On the following day, the test compounds of the present disclosure were subjected to serial dilution. The dilution can be performed according to one of the following two methods: • (1) The first dilution method: The test compounds of the present disclosure (including the compounds in Table 1, Table 2, and Examples 1-468) were subjected to 5-fold serial dilutions starting from a highest concentration of 2000 μM, resulting in a total of 9 concentrations from high to low (2000, 400, 80, 16, 3.2, 0.64, 0.128, 0.0256, 0.00512 μM). Subsequently, 0.5 μL of the test compound dilution was transferred into the 96-well plate containing the cells, with each well containing 100 μL of cell culture medium. […] Into the 96-well plate, the diluted test compounds and corresponding detection reagents were added, resulting in final test compound concentrations of 500 nM and 10 nM, respectively. The experimental procedure is described below using the diluted 2 μM test compound as an example.
0.5 μL of the aforementioned diluted compound of the present disclosure (including the compounds in Table 1, Table 2, and Examples 1-468) was added to the seeded cells in 100 μL of medium, yielding a final test compound concentration of 10 nM. After the cells were treated with the compounds of the present disclosure for a specified period, the cell viability assay reagent was added to the culture medium according to the kit's instructions to determine cell viability. […] All controls were treated using the same procedure as the compounds of the present disclosure. The growth inhibition curves for the compounds of the present disclosure were plotted using Prism GraphPad software, and the IC50 values were calculated therefrom.

The mark [1] stands for this setting: Table IG2, FAK inhibitor-based, MV-4-11, 10 nM, 96 hours.
Where [2] appears, read: Table IG2, FAK inhibitor-based, MV-4-11, 500 nM, 96 hours.
Setting [3] is: Table IB2, ALK inhibitor-based, MV-4-11, 10 nM, 96 hours.
Where [4] appears, read: Table IB2, ALK inhibitor-based, MV-4-11, 500 nM, 96 hours.
[5] abbreviates: Table IL2, BCR-ABL inhibitor-based, MV-4-11, 10 nM, 96 hours.
The mark [6] stands for this setting: Table IL2, BCR-ABL inhibitor-based, MV-4-11, 500 nM, 96 hours.

Where two headings read alike, the source gives them in different places.

On to `CN(Cc1ccc2c(c1)CN(N1CCC(=O)NC1=O)C2=O)C1CCN(c2ccc(Nc3ncc(C(F)(F)F)c(NCc4cccc(N(C)S(C)(=O)=O)c4)n3)cc2)CC1` [GT-08142, N-(3-(((2-((4-(4-(((2-(2,4-dioxotetrahydropyrimidin-1(2H)-yl)-1-oxoisoindolin-5-yl)methyl)(methyl)amino)piperidin-1-yl)phenyl)amino)-5-(trifluoromethyl)pyrimidin-4-yl)amino)methyl)phenyl)-N-methylmethanesulfonamide], for which, under setting [1], the inhibition at 0.01 µM was in the range of 40 to 50%. For the same molecule, the inhibition at 0.5 µM under setting [2] is 80 to 100%.
As for `C[C@@H]1CNC(=O)c2cc3ccc(C(=O)Nc4cnn(Cc5ccc(N6CCN(CC7CCN(c8cccc9c8C(=O)N(N8CCC(=O)NC8=O)C9=O)CC7)CC6)cc5)c4)nc3n21` [GT-08256, (R)—N-(1-(4-(4-((1-(2-(2,4-dioxotetrahydropyrimidin-1(2H)-yl)-1,3-dioxoisoindolin-4-yl)piperidin-4-yl)methyl)piperazin-1-yl)benzyl)-1H-pyrazol-4-yl)-9-methyl-6-oxo-6,7,8,9-tetrahydropyrido[3′,2′: 4,5]pyrrolo[1,2-a]pyrazine-2-carboxamide], the inhibition at 0.01 µM (MV-4-11, 10 nM) was in the range of 20 to 30%. Further, for the setting “MV-4-11, 500 nM”, the inhibition at 0.5 µM was 80 to 100%.
Consider `COc1cc(N2CCC(N(C)CC3CCN(c4cccc5c4C(=O)N(N4CCC(=O)NC4=O)C5=O)CC3)CC2)ccc1Nc1ncc(Cl)c(Nc2ccccc2P(C)(C)=O)n1` [GT-08254, 4-(4-(((1-(4-((5-chloro-4-((2-(dimethylphosphoryl)phenyl)amino)pyrimidin-2-yl)amino)-3-methoxyphenyl)piperidin-4-yl)(methyl)amino)methyl)piperidin-1-yl)-2-(2,4-dioxotetrahydropyrimidin-1(2H)-yl)isoindoline-1,3-dione], for which, under setting [3], the inhibition at 0.01 µM is 45 to 55%. Besides, the inhibition at 0.5 µM under setting [4] fell in the range of 60 to 80%.
With `CC(C)(O)c1cc2nn(C3CCN(Cc4ccc5c(c4)CN(N4CCC(=O)NC4=O)C5=O)CC3)cc2cc1NC(=O)c1cccc(C(F)(F)F)n1` [GT-05746, N-(2-(1-((2-(2,4-dioxotetrahydropyrimidin-1(2H)-yl)-1-oxoisoindolin-5-yl)methyl)piperidin-4-yl)-6-(2-hydroxypropan-2-yl)-2H-indazol-5-yl)-6-(trifluoromethyl) picolinamide], where the note is “Table IA3, IRAK4 inhibitor-based, MV-4-11, 10 nM, 96 hours”, the inhibition at 0.01 µM lay within 10 to 20%. Besides, the inhibition at 0.5 µM (Table IA3, IRAK4 inhibitor-based, MV-4-11, 500 nM, 96 hours) is 60 to 80%.
Regarding `CN(c1nccnc1CNc1nc(Nc2ccc(N3CCN(Cc4ccc5c(c4)CN(N4CCC(=O)NC4=O)C5=O)CC3)cc2)ncc1C(F)(F)F)S(C)(=O)=O` [GT-07504, N-(3-(((2-((4-(4-((2-(2,4-dioxotetrahydropyrimidin-1(2H)-yl)-1-oxoisoindolin-5-yl)methyl)piperazin-1-yl)phenyl)amino)-5-(trifluoromethyl)pyrimidin-4-yl)amino)methyl)pyrazin-2-yl)-N-methylmethanesulfonamide], under setting [1], the inhibition at 0.01 µM is -5 to 0%. In addition, the inhibition at 0.5 µM under setting [2] was 80 to 100%.
For `CN(c1cccc(CNc2nc(Nc3ccc(N4CCC(N5CCN(Cc6ccc7c(c6)CN(N6CCC(=O)NC6=O)C7=O)CC5)CC4)cc3)ncc2C(F)(F)F)c1)S(C)(=O)=O` [GT-08144, N-(3-(((2-((4-(4-(4-((2-(2,4-dioxotetrahydropyrimidin-1(2H)-yl)-1-oxoisoindolin-5-yl)methyl)piperazin-1-yl)piperidin-1-yl)phenyl)amino)-5-(trifluoromethyl)pyrimidin-4-yl)amino)methyl)phenyl)-N-methylmethanesulfonamide], in that order: 30 to 40% and 80 to 100%.
As for `Cn1c2ccncc2c2ccc(-c3cnc(N4CCN(CC5CCN(c6cccc7c6C(=O)N(N6CCC(=O)NC6=O)C7=O)CC5)CC4)c(C(F)(F)F)c3)cc21` [GT-08561, 2-(2,4-dioxotetrahydropyrimidin-1(2H)-yl)-4-(4-((4-(5-(5-methyl-5H-pyrido[4,3-b]indol-7-yl)-3-(trifluoromethyl)pyridin-2-yl)piperazin-1-yl)methyl)piperidin-1-yl)isoindoline-1,3-dione], where the note is “Table IJ2, Tau inhibitor-based, MV-4-11, 10 nM, 96 hours”, the inhibition at 0.01 µM fell in the range of 0 to 5%. In addition, under “Table IJ2, Tau inhibitor-based, MV-4-11, 500 nM, 96 hours”, the inhibition at 0.5 µM is 50 to 60%.
For `CN(c1nccnc1CNc1nc(Nc2ccc(N3CCC(N4CCN(Cc5ccc6c(c5)CN(N5CCC(=O)NC5=O)C6=O)CC4)CC3)cc2)ncc1C(F)(F)F)S(C)(=O)=O` [GT-08138, N-(3-(((2-((4-(4-(4-((2-(2,4-dioxotetrahydropyrimidin-1(2H)-yl)-1-oxoisoindolin-5-yl)methyl)piperazin-1-yl)piperidin-1-yl)phenyl)amino)-5-(trifluoromethyl)pyrimidin-4-yl)amino)methyl)pyrazin-2-yl)-N-methylmethanesulfonamide], the inhibition at 0.01 µM under setting [1] lay in the range of 20 to 30%. Moreover, under setting [2], the inhibition at 0.5 µM lay in the range of 80 to 100%.
On to `C[C@@H]1CNC(=O)c2cc3ccc(C(=O)Nc4cnn(Cc5ccc(N6CCN(CC7CCN(c8ccc9c(c8)C(=O)N(N8CCC(=O)NC8=O)C9=O)CC7)CC6)cc5)c4)nc3n21` [GT-08255, (R)—N-(1-(4-(4-((1-(2-(2,4-dioxotetrahydropyrimidin-1(2H)-yl)-1,3-dioxoisoindolin-5-yl)piperidin-4-yl)methyl)piperazin-1-yl)benzyl)-1H-pyrazol-4-yl)-9-methyl-6-oxo-6,7,8,9-tetrahydropyrido[3′,2′: 4,5]pyrrolo[1,2-a]pyrazine-2-carboxamide], for which the inhibition at 0.01 µM (MV-4-11, 10 nM) is -15 to -5%. For the same molecule, the inhibition at 0.5 µM (MV-4-11, 500 nM) fell in the range of 50 to 70%.
`Cc1ccc(C(=O)Nc2ccc(N3CCN(Cc4ccc5c(c4)CN(N4CCC(=O)NC4=O)C5=O)CC3)c(C(F)(F)F)c2)cc1C#Cc1cnc2cccnn12` [GT-08218, N-(4-(4-((2-(2,4-dioxotetrahydropyrimidin-1(2H)-yl)-1-oxoisoindolin-5-yl)methyl)piperazin-1-yl)-3-(trifluoromethyl)phenyl)-3-(imidazo[1,2-b]pyridazin-3-ylethynyl)-4-methylbenzamide]: the inhibition at 0.01 µM under setting [5] was in the range of 5 to 10%. The inhibition at 0.5 µM under setting [6] was in the range of 80 to 100%.
As to `Cc1ccc(C(=O)Nc2ccc(CN3CCN(Cc4ccc5c(c4)C(=O)N(N4CCC(=O)NC4=O)C5=O)CC3)c(C(F)(F)F)c2)cc1C#Cc1cnc2cccnn12` [GT-08217, N-(4-((4-((2-(2,4-dioxotetrahydropyrimidin-1(2H)-yl)-1,3-dioxoisoindolin-5-yl)methyl)piperazin-1-yl)methyl)-3-(trifluoromethyl)phenyl)-3-(imidazo[1,2-b]pyridazin-3-ylethynyl)-4-methylbenzamide], the inhibition at 0.01 µM under setting [5] was in the range of 10 to 15%. Further, under setting [6], the inhibition at 0.5 µM is 80 to 100%.
In the case of `COc1cc(N2CCC(N3CCN(CC4CCN(c5ccc6c(c5)C(=O)N(N5CCC(=O)NC5=O)C6=O)CC4)CC3)CC2)ccc1Nc1ncc(Cl)c(Nc2ccccc2P(C)(C)=O)n1` [GT-08251, 5-(4-((4-(1-(4-((5-chloro-4-((2-(dimethylphosphoryl)phenyl)amino)pyrimidin-2-yl)amino)-3-methoxyphenyl)piperidin-4-yl)piperazin-1-yl)methyl)piperidin-1-yl)-2-(2,4-dioxotetrahydropyrimidin-1(2H)-yl)isoindoline-1,3-dione], the inhibition at 0.01 µM under setting [3] lay within 30 to 45%. In addition, the inhibition at 0.5 µM under setting [4] lay in the range of 60 to 80%.

What is called inhibition is the change of the read-out against control, counted positive when it falls.

(Values after US20260364184A1, “COMPOUND BASED ON OXOISOINDOLINYL-SUBSTITUTED TETRAHYDROPYRIMIDINE-DIONE AND USE THEREOF” (GLUETACS THERAPEUTICS (SHANGHAI) CO., LTD., priority 2023, published 2026).)
